Reference: US9604981B2, “IP receptor agonist heterocyclic compounds” (Novartis AG, priority 2013, dated 2017)

Target: T1, IP receptor (Homo sapiens, UniProt P43119)
T1 construct: expressed in transfected cells; host or cells: CHO cells (CHO-IP)
Assay: cAMP accumulation in CHO cells stably expressing the IP receptor (AlphaScreen)
Assay type: cell-based
Conditions: 1 hour at room temperature
Method: Activity of compounds at the IP receptor (IP receptor) is assessed by measuring cAMP accumulation in CHO cells stably expressing the IP receptor (CHO-IP) using the PerkinElmer AlphaScreen assay. This technology measures the endogenous production of cAMP, in a non-radioactive luminescence proximity homogenous assay. A biological reaction occurs between streptavidin coated donor beads, biotinylated cAMP and anti-cAMP acceptor beads, bringing the donor and acceptor beads close enough together so that upon excitation a fluorescence signal is produced. On production of endogenous cAMP, competition between the biotinylated cAMP and cellular-derived cAMP causes a reduction in the fluorescent signal. The reduction in signal is proportional to the amount of cAMP being produced, thus it is possible to quantify the amount of cAMP being produced on stimulation with agonist.
Test and reference compounds are prepared at 100× [final] in 100% DMSO, and diluted 1:3 using a Biomek Fx (Beckman Coulter). This is followed by an intermediate dilution to give 5× [final] in assay buffer (HBSS containing 5 mM HEPES, 0.1% (w/v) BSA). […] The assay plate is then incubated at room temperature in the dark, for 60 minutes with gentle shaking, and read on the Envision plate reader (Perkin Elmer). […]

T1 sequence (P43119 whole entry): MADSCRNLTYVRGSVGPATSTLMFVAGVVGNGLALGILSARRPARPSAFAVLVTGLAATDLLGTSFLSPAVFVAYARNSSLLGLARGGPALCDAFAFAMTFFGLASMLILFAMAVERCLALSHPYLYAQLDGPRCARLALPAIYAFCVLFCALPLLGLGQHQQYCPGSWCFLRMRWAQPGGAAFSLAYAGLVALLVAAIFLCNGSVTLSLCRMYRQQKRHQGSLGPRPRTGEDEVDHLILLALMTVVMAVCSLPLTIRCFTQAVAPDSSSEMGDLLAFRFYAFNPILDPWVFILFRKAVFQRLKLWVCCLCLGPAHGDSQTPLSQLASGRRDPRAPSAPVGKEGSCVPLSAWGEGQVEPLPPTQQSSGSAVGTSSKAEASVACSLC

- EC50: 0.455 nM
SMILES: Cc1ccc(-c2cc3c(nc2-c2ccc(C)cc2)CCCN3CCCCCCC(=O)O)cc1 [Example 1, 7-(6,7-Di-p-tolyl-3,4-dihydro-1,5-naphthyridin-1(2H)-yl)heptanoic acid]
